From patent US20250144067A1, “PERSONALIZED STARVATION THERAPY FOR CANCER” (Faeth Therapeutics, Inc., priority 2021, published 2025)
Where a name gives a salt, the structure may show the parent alone. Read-outs that look alike come from different tables or passages of the source.

Key:
[1] = test system: NCI-H292 lung cancer cells; experiment: FDA drug screening, complete media vs cholesterol-free media without statin (TABLE 1); format: cell-based, human
[2] = test system: NCI-H292 lung cancer cells; experiment: FDA drug screening, complete media vs cholesterol-free media with simvastatin (TABLE 2); format: cell-based, human
[3] = Complete minus Cholesterol-free, greater than 0 enhanced anti-cancer activity, about 0 neutral, below 0 antagonist
[4] = NCI-H292 cells, FDA drug library screen, cholesterol-free media without statin
[5] = NCI-H292 cells, FDA drug library screen, complete media
[6] = NCI-H292 cells, FDA drug library screen, cholesterol-free media with simvastatin 0.04 μM
[7] = complete media minus cholesterol-free media + simvastatin, >0 enhanced anti-cancer activity, about 0 neutral, <0 antagonist
[8] = NCI-H292 cells, cholesterol-free media without statin
[9] = complete vs cholesterol-free media, […]
[10] = complete media minus cholesterol-free media + simvastatin, […]
[11] = NCI-H292 cells, cholesterol-free media without statin, FDA drug library screen
[12] = NCI-H292 cells, complete media, FDA drug library screen
[13] = NCI-H292 cells, drug in cholesterol-free media with simvastatin 0.04 μM
[14] = NCI-H292 cells, drug in complete media
[15] = Complete minus Cholesterol-free, greater than 0 enhanced anti-cancer activity, about 0 neutral, below 0 antagonists
[16] = NCI-H292 cells in cholesterol-free media without statin
[17] = NCI-H292 cells in complete media
[18] = NCI-H292 cells, cholesterol-free media with simvastatin 0.04 μM, FDA drug library screen (TABLE 2)
[19] = NCI-H292 cells, complete media, FDA drug library screen (TABLE 2)
[20] = complete media minus cholesterol-free media + simvastatin (0.04 μM), >0 enhanced anti-cancer activity, about 0 neutral, <0 antagonist
[21] = NCI-H292 cells, FDA library drug in cholesterol-free media with simvastatin 0.04 μM
[22] = NCI-H292 cells, FDA library drug in complete media
[23] = complete media vs cholesterol-free media + simvastatin (0.04 μM), >0 enhanced anti-cancer activity, about 0 neutral, <0 antagonist
[24] = complete vs cholesterol-free media, greater than 0 enhanced anti-cancer activity, about 0 neutral, below 0 antagonists
[25] = NCI-H292 cells, cholesterol-free media with simvastatin 0.04 μM, cell growth value in FDA drug screen
[26] = NCI-H292 cells, complete media, cell growth value in FDA drug screen
[27] = Complete minus Cholesterol-free, >0 enhanced anti-cancer activity, about 0 neutral, <0 antagonist
[28] = complete vs cholesterol-free media, >0 enhanced anti-cancer activity, about 0 neutral, <0 antagonist

## Cc1cccc(C)c1N(CC(=O)Nc1ccc(-c2ncon2)cc1)C(=O)C1CCS(=O)(=O)CC1 [Amenamevir]
[1]; [3]
  Difference: −0.08
[1]; [4]
  Cholesterol-free: 0.9508
[1]; [5]
  Complete: 0.8718
[2]; [6]
  Cholesterol-free media + simvastatin (0.04 μM): 0.9047
[2]; [5]
  Complete Media: 1.06
[2]; [7]
  Difference: 0.16

## Octreotide (acetate)
[1]; [8]
  Cholesterol-free: 1.157
[1]; NCI-H292 cells, complete media
  Complete: 0.7258
[1]; [9]
  Difference: −0.43
[2]; [5]
  Complete Media: 1.58
[2]; [10]
  Difference: 0.17

## COC1=C[C@@H]2[C@@H]3Cc4ccc(OC)c(O)c4[C@]2(CCN3C)CC1=O [Sinomenine hydrochloride]
[1]; [11]
  Cholesterol-free: 1.217
[1]; [12]
  Complete: 1.524
[1]; [9]
  Difference: 0.31
[2]; [13]
  Cholesterol-free media + simvastatin (0.04 μM): 1.006
[2]; [14]
  Complete Media: 0.7844
[2]; complete media vs cholesterol-free media + simvastatin (0.04 μM), […]
  Difference: −0.22

## CCCCCCCCCCCCCCCCCCOCC(O)CO (centres unmarked) [Batilol]
[1]; [15]
  Difference: −0.55
[1]; [16]
  Cholesterol-free: 1.321
[1]; [17]
  Complete: 0.7704
[2]; [18]
  Cholesterol-free media + simvastatin (0.04 μM): 0.9215
[2]; [19]
  Complete Media: 0.9293
[2]; [20]
  Difference: 0.01

## Cc1cc2c(s1)Nc1ccccc1N=C2N1CCN(C)CC1 [Olanzapine]
[1]
  Cholesterol-free: 0.9635
  Complete: 0.9217
  Difference: −0.04
[2]
  Cholesterol-free media + simvastatin (0.04 μM): 1.722
  Complete Media: 1.489
  Difference: −0.23

## Cc1c(OCC(F)(F)F)ccnc1C[S@@+]([O-])c1nc2ccccc2[nH]1 [(R)-Lansoprazole]
[1]; [3]
  Difference: −0.18
[1]; [4]
  Cholesterol-free: 0.9835
[1]; [5]
  Complete: 0.8054
[2]; [18]
  Cholesterol-free media + simvastatin (0.04 μM): 1.431
[2]; [19]
  Complete Media: 1.389
[2]; [20]
  Difference: −0.04

## Doxazosin (mesylate)
[1]; [15]
  Difference: −0.61
[1]; [16]
  Cholesterol-free: 1.69
[1]; [17]
  Complete: 1.083
[2]; [21]
  Cholesterol-free media + simvastatin (0.04 μM): 1.325
[2]; [22]
  Complete Media: 0.9839
[2]; [23]
  Difference: −0.34

## Sultamicillin (tosylate)
[1]; [8]
  Cholesterol-free: 1.337
[1]; NCI-H292 cells, complete media
  Complete: 1.021
[1]; [24]
  Difference: −0.32
[2]; [25]
  Cholesterol-free media + simvastatin (0.04 μM): 1.072
[2]; [26]
  Complete Media: 1.191
[2]; [7]
  Difference: 0.12

## CN1C(C(=O)Nc2ccccn2)=C(O)c2sccc2S1(=O)=O [Tenoxicam]
[1]; [8]
  Cholesterol-free: 1.354
[1]; NCI-H292 cells, complete media
  Complete: 0.9821
[1]; [24]
  Difference: −0.37
[2]; [6]
  Cholesterol-free media + simvastatin (0.04 μM): 0.6836
[2]; [5]
  Complete Media: 0.8819
[2]; [7]
  Difference: 0.20

## CN(C)C(=O)Oc1cccc([N+](C)(C)C)c1.COS(=O)(=O)[O-] [Neostigmine (methyl sulfate)]
[1]; [8]
  Cholesterol-free: 1.718
[1]; NCI-H292 cells, complete media
  Complete: 1.281
[1]; [9]
  Difference: −0.44
[2]; [6]
  Cholesterol-free media + simvastatin (0.04 μM): 0.8206
[2]; [5]
  Complete Media: 1.308
[2]; [10]
  Difference: 0.49

## Cc1cc2ncc(C(=O)NCC(C)(C)NCC(=O)N3CCC[C@H]3C#N)cn2n1 [Anagliptin]
[1]; [27]
  Difference: −0.23
[1]; [8]
  Cholesterol-free: 1.234
[1]; NCI-H292 cells, complete media
  Complete: 1.003
[2]; [6]
  Cholesterol-free media + simvastatin (0.04 μM): 1.09
[2]; [5]
  Complete Media: 0.9692
[2]; [23]
  Difference: −0.12

## Nc1nc2c(ncn2COCCO)c(=O)[nH]1 [Acyclovir]
[1]; [11]
  Cholesterol-free: 0.843
[1]; [12]
  Complete: 1.434
[1]; [28]
  Difference: 0.59
[2]; [6]
  Cholesterol-free media + simvastatin (0.04 μM): 1.866
[2]; [5]
  Complete Media: 1.782
[2]; [23]
  Difference: −0.08

## CCCCCCCCCC(=O)OCCN1CCN(CCCN2c3ccccc3Sc3ccc(C(F)(F)F)cc32)CC1 [Fluphenazine decanoate]
[1]; [11]
  Cholesterol-free: 0.4638
[1]; [12]
  Complete: 1.069
[1]; [28]
  Difference: 0.60
[2]; [6]
  Cholesterol-free media + simvastatin (0.04 μM): 0.7434
[2]; [5]
  Complete Media: 0.9759
[2]; [7]
  Difference: 0.23

## N[C@H](C(=O)O)[C@H](O)c1ccc(O)c(O)c1 [Droxidopa]
[1]; [11]
  Cholesterol-free: 0.9972
[1]; [12]
  Complete: 1.24
[1]; [28]
  Difference: 0.24
[2]; [13]
  Cholesterol-free media + simvastatin (0.04 μM): 1.236
[2]; [14]
  Complete Media: 1.023
[2]; [23]
  Difference: −0.21

## CC(C)OC(=O)C(C)(C)Oc1ccc(C(=O)c2ccc(Cl)cc2)cc1 [Fenofibrate]
[1]; [27]
  Difference: −0.06
[1]; [11]
  Cholesterol-free: 0.8551
[1]; [12]
  Complete: 0.7932
[2]; [13]
  Cholesterol-free media + simvastatin (0.04 μM): 1.641
[2]; [14]
  Complete Media: 1.401
[2]; [23]
  Difference: −0.24

## CCOc1ccc2nc(S(N)(=O)=O)sc2c1 [Ethoxzolamide]
[1]; [8]
  Cholesterol-free: 1.33
[1]; NCI-H292 cells, complete media
  Complete: 0.9909
[1]; [24]
  Difference: −0.34
[2]; [6]
  Cholesterol-free media + simvastatin (0.04 μM): 1.137
[2]; [5]
  Complete Media: 1.016
[2]; [23]
  Difference: −0.12

## O=C(O)Cc1ccccc1Nc1c(Cl)cccc1Cl [Diclofenac (Sodium)]
[1]; [27]
  Difference: −0.23
[1]; [8]
  Cholesterol-free: 1.086
[1]; NCI-H292 cells, complete media
  Complete: 0.859
[2]; [21]
  Cholesterol-free media + simvastatin (0.04 μM): 1.356
[2]; [22]
  Complete Media: 0.9075
[2]; [23]
  Difference: −0.45

## NCC(CC(=O)O)c1ccc(Cl)cc1 (centres unmarked) [Baclofen]
[1]; [11]
  Cholesterol-free: 0.5541
[1]; [12]
  Complete: 1.886
[1]; [28]
  Difference: 1.33
[2]; [25]
  Cholesterol-free media + simvastatin (0.04 μM): 0.9225
[2]; [26]
  Complete Media: 1.02
[2]; [7]
  Difference: 0.10

## CC(OC(=O)NCC1(CC(=O)O)CCCCC1)OC(=O)C(C)C (centres unmarked) [Gabapentin enacarbil]
[1]; [3]
  Difference: −0.14
[1]; [4]
  Cholesterol-free: 1.017
[1]; [5]
  Complete: 0.8727
[2]; [6]
  Cholesterol-free media + simvastatin (0.04 μM): 1.032
[2]; [5]
  Complete Media: 0.9332
[2]; [23]
  Difference: −0.10

## CCN[C@H]1C[C@H](C)S(=O)(=O)c2sc(S(N)(=O)=O)cc21 [Dorzolamide (hydrochloride)]
[1]; [3]
  Difference: −0.11
[1]; [4]
  Cholesterol-free: 1.045
[1]; [5]
  Complete: 0.9378
[2]; [21]
  Cholesterol-free media + simvastatin (0.04 μM): 0.9476
[2]; [22]
  Complete Media: 0.6459
[2]; [23]
  Difference: −0.30

## CC1(C)S[C@@H]2[C@H](NC(=O)C(c3ccccc3)S(=O)(=O)O)C(=O)N2[C@H]1C(=O)O (some centres unmarked) [Sulbenicillin (disodium)]
[1]; [11]
  Cholesterol-free: 0.8061
[1]; [12]
  Complete: 1.226
[1]; [28]
  Difference: 0.42
[2]; [13]
  Cholesterol-free media + simvastatin (0.04 μM): 1.164
[2]; [14]
  Complete Media: 0.9986
[2]; [23]
  Difference: −0.17

## Nc1ccc(S(=O)(=O)Nc2ccc(Cl)nn2)cc1 [Sulfachloropyridazine]
[1]; [3]
  Difference: −0.17
[1]; [4]
  Cholesterol-free: 1.057
[1]; [5]
  Complete: 0.8847
[2]; [18]
  Cholesterol-free media + simvastatin (0.04 μM): 0.9751
[2]; [19]
  Complete Media: 0.932
[2]; [20]
  Difference: −0.04

## O[C@@H]1CO[C@H]2[C@@H]1OC[C@@H]2O [Isosorbide]
[1]; [27]
  Difference: −0.05
[1]; [11]
  Cholesterol-free: 1.174
[1]; [12]
  Complete: 1.123
[2]; [6]
  Cholesterol-free media + simvastatin (0.04 μM): 0.9214
[2]; [5]
  Complete Media: 1.515
[2]; [7]
  Difference: 0.59

## O=C(O)CCCCCCCC(=O)O [Azelaic acid]
[1]; [15]
  Difference: −0.60
[1]; [16]
  Cholesterol-free: 1.702
[1]; [17]
  Complete: 1.104
[2]; [21]
  Cholesterol-free media + simvastatin (0.04 μM): 1.245
[2]; [22]
  Complete Media: 0.8813
[2]; [23]
  Difference: −0.36
